Data published in ChEMBL document CHEMBL1201862, “PubChem BioAssay data set” (2004).
The source made the active and inactive calls.

How the values were obtained:
[1] = molecular target: Aryl hydrocarbon receptor (Homo sapiens, UniProt P35869); experiment: Luminescence-based cell-based high throughput dose response assay for activators of the Aryl Hydrocarbon Receptor (AHR). [Related pubchem assays: 2796 (Primary screen (AHR activators in singlicate)), 2845 (Confirmation screen (AHR activators in triplicate)), 434939 (Counterscreen (PXR activators in triplicate)), 2804 (Summary (AHR activators))]; assay type: ADME
[2] = viability of PTEN-deleted HCT116 cells – cell-based, HCT116 PTEN knockout, dose response (AID 1047); assay type: functional;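 further: HCT116 colon tumor cells with PTEN knocked out; cells exposed to compound for 60 hours before readout; potency for loss of cell viability measured by luminescence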
[3] = viability of HCT116 lacking mutant beta-catenin – cell-based, human colon tumor, dose response (AID 1045); assay type: functional;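 further: HCT116 colon tumor cells with beta catenin knocked out; cells exposed to compound for 60 hours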
[4] = molecular target: T1, Dual specificity protein phosphatase 6 (Rattus norvegicus, UniProt Q64346); experiment: inhibition of rat DUSP6 enzyme activity – biochemical, in vitro, primary screen (AID 425)
T1 sequence (Q64346 whole entry): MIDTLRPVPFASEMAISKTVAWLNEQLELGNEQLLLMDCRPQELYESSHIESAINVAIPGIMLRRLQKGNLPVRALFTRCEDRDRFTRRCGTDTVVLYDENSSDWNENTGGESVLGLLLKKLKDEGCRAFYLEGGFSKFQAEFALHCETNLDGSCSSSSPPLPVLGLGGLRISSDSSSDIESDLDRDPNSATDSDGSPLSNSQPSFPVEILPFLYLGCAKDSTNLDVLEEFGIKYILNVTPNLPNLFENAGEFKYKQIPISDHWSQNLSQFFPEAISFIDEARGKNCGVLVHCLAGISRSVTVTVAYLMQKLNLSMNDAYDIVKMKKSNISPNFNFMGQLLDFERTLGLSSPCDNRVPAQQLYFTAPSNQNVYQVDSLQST

[5] = molecular target: T2, Mannose-6-phosphate isomerase (Homo sapiens, UniProt P34949); experiment: MPI inhibition at elevated mannose 6-phosphate – biochemical, fluorescence intensity, high mannose 6-phosphate, primary screen (AID 1220)
T2 sequence (P34949 whole entry): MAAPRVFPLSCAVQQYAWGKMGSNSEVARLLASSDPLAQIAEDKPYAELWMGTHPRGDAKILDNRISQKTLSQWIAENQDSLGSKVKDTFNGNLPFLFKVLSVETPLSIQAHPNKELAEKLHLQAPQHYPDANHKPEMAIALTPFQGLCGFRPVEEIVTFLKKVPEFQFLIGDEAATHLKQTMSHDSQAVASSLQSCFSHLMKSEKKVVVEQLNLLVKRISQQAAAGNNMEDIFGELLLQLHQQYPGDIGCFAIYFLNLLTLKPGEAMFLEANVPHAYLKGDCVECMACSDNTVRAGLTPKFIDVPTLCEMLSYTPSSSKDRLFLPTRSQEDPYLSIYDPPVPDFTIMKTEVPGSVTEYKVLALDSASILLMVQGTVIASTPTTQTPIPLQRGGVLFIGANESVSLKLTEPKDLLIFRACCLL

[6] = molecular target: T2, Mannose-6-phosphate isomerase; experiment: MPI enzyme activity inhibition – biochemical, fluorescence intensity, coupled assay, primary screen (AID 1209)
[7] = molecular target: Heat shock protein HSP 90-alpha (Homo sapiens, UniProt P07900); experiment: Luminescence-based dose response biochemical high throughput screening assay for inhibitors of the Heat Shock Protein 90 (HSP90). [Related pubchem assays: 1831 (Summary AID.), 1846 (Confirmation screen.), 1789 (Primary screen.)]
Estrogen receptor beta [8] = molecular target: T3, Estrogen receptor beta (Homo sapiens, UniProt Q92731); experiment: blockers of SRC-3 recruitment to ERβ – biochemical, ELISA, streptavidin-HRP readout, orthogonal assay, confirmation (AID 1060)
[9] = viability loss of HPDE-C7K cells – cell-based, fluorescence, HTS, primary screen (AID 431); assay type: functional; details: Homo sapiens
[10] = HPDE-C7 pancreatic duct cell viability loss – fluorescence, HTS (AID 430); assay type: functional, cell-based; details: Homo sapiens
[11] = Luminescence Cell-Based Dose Confirmation to Identify Activators of 5'UTR Stem-Loop Driven Alpha-Synuclein mRNA Translation in H4 Neuroglioblastoma Cells. [Related pubchem assays: 1829 (Project Summary), 1814 (Primary HTS)]; assay type: functional
[12] = Luminescence Cell-Based Dose Response to Identify Activators of Luciferase Translation or Activity in H4-C Neuroglioblastoma Cells. [Related pubchem assays: 1829 (Project Summary), 1814 (Primary HTS)]; assay type: functional
[13] = Luminescence Cell-Based Dose Response to Identify Activators of 5'UTR Stem-Loop Driven Prion Protein mRNA Translation in H4-C Neuroglioblastoma Cells. [Related pubchem assays: 1829 (Project Summary), 1814 (Primary HTS)]; assay type: functional
[14] = Luminescence Cell-Based Dose Response HTS to Identify Activators of Luciferase Translation or Activity in H4 […] Cells. [Related pubchem assays: 1829 (Project Summary), 1814 (Primary HTS)]; assay type: functional
H4 = experiment: Luminescence Cell-Based Dose Response HTS to Identify Activators of 5'UTR Stem-Loop Driven Prion Protein mRNA Translation in H4 Neuroglioblastoma Cells. [Related pubchem assays: 1829 (Project Summary), 1814 (Primary HTS)]; assay type: functional; details: Homo sapiens
Protein Tat = molecular target: T4, Protein Tat (Human immunodeficiency virus type 1 group M subtype B (isolate HXB2)(HIV-1), UniProt P04608); assay type: functional;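 further: tat binding to TAR RNA read out by fluorescence polarization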
T4 sequence (P04608 whole entry): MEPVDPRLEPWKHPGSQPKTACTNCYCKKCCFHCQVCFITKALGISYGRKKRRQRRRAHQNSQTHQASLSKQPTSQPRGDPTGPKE

[15] = HIV-1 Vif–A3G interaction blockers – biochemical, TR-FRET, GST-Vif 1-94, biotin-A3G peptide, dose response retest, primary screen (AID 1117319); assay type: functional;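 further: TR-FRET signal of purified GST-Vif binding a biotinylated A3G peptide; inhibitors lower the FRET signal by blocking Vif and A3G binding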
Vero [16] = experiment: mammalian cell viability reduction – secondary assay, cytotoxicity control for West Nile virus antiviral project, dose response (AID 1650); assay type: functional; details: Chlorocebus sabaeus
Vero [17] = experiment: cells; assay type: functional; details: Chlorocebus sabaeus
Estrogen receptor beta [18] = molecular target: T3, Estrogen receptor beta
[19] = RKO cell viability reduction, dose response, CellTiter-Glo luminescence (AID 1117322); assay type: functional
[20] = cytotoxicity toward HT-29 cells – cell-based, CellTiter-Glo luminescence, IC50, dose response (AID 1117330); assay type: functional
[21] = Potency on glucagon-like peptide 1 release, dose-response in NCI-H716 cell line, half maximal inhibitory concentration (AID 1117344); assay type: functional, cell-based
[22] = molecular target: T5, Ubiquitin-conjugating enzyme E2 N (Homo sapiens, UniProt P61088); assay type: functional;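 further: Dose-response confirmation in a TR-FRET assay detecting UBC13-driven polyubiquitin chain formation, inhibition measured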
T5 sequence (P61088 whole entry): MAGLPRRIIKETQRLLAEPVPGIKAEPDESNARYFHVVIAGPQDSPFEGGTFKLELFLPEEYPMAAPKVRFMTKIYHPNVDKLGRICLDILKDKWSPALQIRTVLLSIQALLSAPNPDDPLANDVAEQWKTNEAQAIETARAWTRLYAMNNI

[23] = Reduced DLD-1 viability, concentration-response, CellTiter-Glo luminescence (AID 1117352); assay type: functional
[24] = CellTiter-Glo luminescence survival assay, SW480 colon tumor line, concentration-response curve, half-maximal inhibitory concentration (AID 1117338); assay type: functional
[25] = HCT116 cell viability decrease, GSK3B pretreatment – CellTiter-Glo, IC50, dose response (AID 1117339); assay type: functional; details: HCT-116
[26] = glucagon-like peptide-1 release potency in STC-1, concentration-response, half-maximal inhibitory concentration in the STC-1 line (AID 1117345); assay type: functional, cell-based
[27] = cytotoxicity toward Colo320 cells – cell-based, CellTiter-Glo luminescence, IC50, dose response (AID 1117334); assay type: functional; details: COLO 320
[28] = cytotoxicity toward HCT116 cells – cell-based, CellTiter-Glo luminescence, IC50, dose response (AID 1117332); assay type: functional; details: HCT-116
[29] = SNU-C1 cell viability reduction, dose response, CellTiter-Glo luminescence (AID 1117323); assay type: functional, cell-based
[30] = Luminescence Cell-Based Dose Confirmation HTS to Identify Activators of 5'UTR Stem-Loop Driven Alpha-Synuclein mRNA Translation in H4 Neuroglioblastoma Cells. [Related pubchem assays: 1829 (Project Summary), 1814 (Primary HTS)]; assay type: functional

T3 sequence (Q92731 whole entry): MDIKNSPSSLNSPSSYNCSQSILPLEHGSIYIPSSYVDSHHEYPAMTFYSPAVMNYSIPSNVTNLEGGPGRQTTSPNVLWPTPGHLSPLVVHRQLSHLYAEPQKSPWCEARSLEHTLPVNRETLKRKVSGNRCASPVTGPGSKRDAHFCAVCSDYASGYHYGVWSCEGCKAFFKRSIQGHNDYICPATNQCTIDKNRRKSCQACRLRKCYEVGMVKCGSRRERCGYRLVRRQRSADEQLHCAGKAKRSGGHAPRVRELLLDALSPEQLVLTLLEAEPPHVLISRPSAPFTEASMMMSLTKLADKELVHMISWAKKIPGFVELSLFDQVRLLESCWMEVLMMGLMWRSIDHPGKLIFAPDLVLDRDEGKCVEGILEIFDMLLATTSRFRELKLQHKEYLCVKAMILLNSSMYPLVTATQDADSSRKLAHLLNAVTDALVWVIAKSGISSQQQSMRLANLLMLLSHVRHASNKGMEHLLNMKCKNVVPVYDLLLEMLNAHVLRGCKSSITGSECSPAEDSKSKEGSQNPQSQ
Aryl hydrocarbon receptor, sequence (P35869 whole entry): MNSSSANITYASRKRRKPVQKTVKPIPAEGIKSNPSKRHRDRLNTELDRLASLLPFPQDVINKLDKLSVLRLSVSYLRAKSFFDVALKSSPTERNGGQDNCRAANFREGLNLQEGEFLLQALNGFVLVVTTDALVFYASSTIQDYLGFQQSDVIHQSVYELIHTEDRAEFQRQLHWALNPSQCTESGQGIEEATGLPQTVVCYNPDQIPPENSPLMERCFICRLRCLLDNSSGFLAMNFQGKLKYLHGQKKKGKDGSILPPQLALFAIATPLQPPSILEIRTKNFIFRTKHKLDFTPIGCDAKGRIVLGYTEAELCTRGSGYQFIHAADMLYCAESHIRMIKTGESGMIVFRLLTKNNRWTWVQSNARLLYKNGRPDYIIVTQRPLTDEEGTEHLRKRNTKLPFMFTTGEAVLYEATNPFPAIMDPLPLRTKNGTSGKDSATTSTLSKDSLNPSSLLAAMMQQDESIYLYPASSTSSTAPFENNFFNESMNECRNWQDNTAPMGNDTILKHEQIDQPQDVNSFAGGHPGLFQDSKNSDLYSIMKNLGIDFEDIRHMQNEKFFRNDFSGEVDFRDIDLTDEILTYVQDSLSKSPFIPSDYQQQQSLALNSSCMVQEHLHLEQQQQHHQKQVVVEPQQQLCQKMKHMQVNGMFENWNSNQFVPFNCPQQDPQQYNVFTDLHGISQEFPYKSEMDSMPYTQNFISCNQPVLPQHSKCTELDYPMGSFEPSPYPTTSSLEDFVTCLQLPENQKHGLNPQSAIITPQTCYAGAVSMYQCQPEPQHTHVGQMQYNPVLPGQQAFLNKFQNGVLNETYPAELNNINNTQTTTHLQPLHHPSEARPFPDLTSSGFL

In the case of `O=C(Nc1ccc2c(c1)OCO2)c1ccncc1`, the EC50 [1] is reported as 25.3 µM (not active).
With `O=C1CC(c2ccccc2)c2cc(O)ccc2O1` (stereo not given) the EC50 [2] was 32 µM (active), the EC50 [3] was 34.8 µM (active) and the IC50 [4] was > 100 µM (not active).
With `CC1(C)Oc2ccc3ccc(=O)oc3c2-c2cnoc21` the IC50 [5] was > 50 µM (not active) and the IC50 [6] was > 50 µM (not active).
In the case of `COc1ccccc1Nc1nn2c(=O)c3ccc(C(=O)NCc4cccnc4)cc3nc2s1`, the IC50 [7] is reported as 4.9 µM (active).
For `CN(C)c1ccc(NC(=O)N2CCOCC2)cc1`, the IC50 (Estrogen receptor beta [8]) was 0.0633 µM (not active).
For `CN1C(=O)C2(OCC(COc3ccc(Cl)cc3)O2)c2ccccc21` (stereo not given), the EC50 [9] was > 20 µM (not active) and the EC50 [10] was > 20 µM (not active).
For `CCCCSc1nc2c(cnn2-c2ccccc2)c(=O)n1N`, the EC50 [11] was 0.646 µM (active), the EC50 [12] was 0.347 µM (active) and the EC50 [13] was 0.348 µM (active). For the same compound, the EC50 [14] was < 0.1 µM (active) and the EC50 (H4) was > 120 µM (not active).
For `O=C(CSc1nnc(C2CCCCC2)n1Cc1ccccc1)NCc1ccco1`, the IC50 (Protein Tat) was > 100 µM (active) and the IC50 [15] was > 100 µM (active).
For `CC(=O)OC1CC[C@]2(C#N)[C@H]3CC[C@]4(C)[C@H](C5C=CC(=O)O5)CCC4(O)C3CCC2(O)C1` (stereo not given in full), the CC50 (Vero [16]) was 13.5 µM (active) and the CC50 (Vero [17]) was 18.5 µM (active).
For `O=C(Nc1cccc(Cl)c1)c1ccc(O)nn1`, the EC50 [1] was 3.4 µM (active).
With `CCOC(=O)Cn1cnc2sc3c(c2c1=O)CCC3` the IC50 (Estrogen receptor beta [18]) was 3.62 µM (active) and the IC50 (Estrogen receptor beta [8]) was 106 µM (not active).
For `CN1CCN(CCCN2c3ccccc3Sc3ccc(C(F)(F)F)cc32)CC1`, the IC50 [19] was 0.565 µM (active), the IC50 [20] was 2.81 µM (active) and the IC50 [21] was > 40 µM (inactive). For the same compound, the IC50 [22] was > 20 µM (inactive), the EC50 [2] was 11.9 µM (active) and the IC50 [23] was 7.35 µM (inactive). The EC50 [9] was 7.72 µM (active), the EC50 [3] was 11.7 µM (active) and the IC50 [24] was 2.72 µM (active). For the same compound, the IC50 [25] was 3.23 µM (active), the IC50 [26] was > 40 µM (inactive) and the IC50 [27] was 2.36 µM (active). The IC50 [28] was 7.22 µM (inactive), the IC50 [29] was 2.63 µM (active) and the EC50 [10] was 11.9 µM (active).
With `Fc1ccccc1NC(=S)N/N=C/c1ccccc1Br` the EC50 [30] was 0.219 µM (active), the EC50 [11] was 5.76 µM (active) and the EC50 [12] was 0.376 µM (active). The EC50 [13] was 0.578 µM (active), the EC50 [14] was < 0.1 µM (active) and the EC50 (H4) was > 120 µM (not active).
In the case of `Cc1ccc(Nc2nc(NCCO)c3ccccc3n2)cc1C`, the CC50 (Vero [16]) is reported as 13.4 µM (active) and the IC50 [22] is reported as > 20 µM (inactive).
